{
  "source": "patent US12188040B2",
  "about": "“Method for enhancing gene expression using AAV vector” (priority 2018, dated 2025)",
  "test_system": "HEK293 cells",
  "conditions": "for D/L ratio of expression intensity: 132 mM; for Effect of enhancement compared among the sugars: monosaccharides 100 or 200 mM; for GFP intensity: Exp 2, AAV3B 6×10^7 vg/well, iso-osmotic additives: sucrose 125.0, glucose 132.3, mannitol 132.3, NaCl 71.5 mM",
  "experimental": "As the first procedure, 4 methods of the addition were carried out, including adding sucrose immediately (5 minutes or less) after the administration of the AAV vector, and the administration of the AAV vector immediately (5 minutes or less) after, 10 minutes after or 1 hour after adding sucrose to cells.\nIn the same manner as the above-described procedure, the GFP expression level was measured 3 days later.\nIn the same manner as the above-described procedures, the GFP expression level was measured 3 days later.\nAAV3B-CMV-AcGFP was mixed in advance with sucrose at each of various concentrations, and the mixture was allowed to stand at room temperature for 1 hour followed by administration to cells. […] In order to prevent cell damage due to a buffer at the time of dilution of sucrose, medium replacement was carried out using a sucrose solution having the same concentration that was prepared by the medium 3 hours after the administration.",
  "key": {"[1]": {"conditions": "Exp 5, AAV3B 1×10^8 vg/well premixed 1 h, glucose 132 mM final, Day 1"}, "[2]": {"conditions": "Exp 5, AAV3B 1×10^8 vg/well premixed 1 h, glucose 132 mM final, Day 2"}, "[3]": {"conditions": "Exp 5, AAV3B 1×10^8 vg/well premixed 1 h, glucose 132 mM final, Day 3"}, "[4]": {"conditions": "Exp 9, monosaccharide 100 mM, 3 days"}, "[5]": {"conditions": "Exp 9, monosaccharide 100 mM, AAV3B 1×10^8 vg/well premixed 1 h, 3 days"}, "[6]": {"conditions": "Exp 9, monosaccharide 200 mM, 3 days"}, "[7]": {"conditions": "Exp 9, monosaccharide 200 mM, AAV3B 1×10^8 vg/well premixed 1 h, 3 days"}, "[8]": {"conditions": "Exp 8, disaccharide 100 mM in medium, AAV3B 1×10^8 vg/well, Day 3"}, "[9]": {"conditions": "Exp 8, disaccharide 100 mM, Day 3"}, "[10]": {"conditions": "Exp 8, disaccharide 125 mM in medium, AAV3B 1×10^8 vg/well, Day 3"}, "[11]": {"conditions": "Exp 8, disaccharide 125 mM, Day 3"}, "[12]": {"conditions": "Exp 8, disaccharide 150 mM in medium, AAV3B 1×10^8 vg/well, Day 3"}, "[13]": {"conditions": "Exp 8, disaccharide 150 mM, AAV3B 1×10^8 vg/well, Day 1"}, "[14]": {"conditions": "Exp 8, disaccharide 150 mM, AAV3B 1×10^8 vg/well, Day 2"}, "[15]": {"conditions": "Exp 8, disaccharide 150 mM, AAV3B 1×10^8 vg/well, Day 6"}, "[16]": {"conditions": "Exp 8, disaccharide 150 mM, Day 3"}},
  "note": "Where “and” joins values, the source holds several entries; their conditions need not be identical. Equal entries are not always repeated. Where two headings read alike, the source gives them in different places.",
  "data": [
    {"smiles": "O=C[C@H](O)[C@@H](O)[C@H](O)[C@H](O)CO", "note": "[D-Glucose, D-glucose]", "values": [
      {"measurement": "D/L ratio of expression intensity", "setting": "Exp 5, Day 1", "result": 1.5, "unit": "times"},
      {"measurement": "D/L ratio of expression intensity", "setting": "Exp 5, Day 2", "result": 1.8},
      {"measurement": "D/L ratio of expression intensity", "setting": "Exp 5, Day 3", "result": 2.1, "unit": "times"},
      {"measurement": "Fluorescence Intensity", "setting": "[1]", "result": 161.0},
      {"measurement": "Fluorescence Intensity", "setting": "[2]", "result": 1232.5},
      {"measurement": "Fluorescence Intensity", "setting": "[3]", "result": 2966.3}
    ]},
    {"smiles": "O=C(CO)[C@@H](O)[C@H](O)[C@H](O)CO", "note": "[Fructose, fructose]", "values": [
      {"measurement": "Relativeness (vs (−))", "setting": "[4]", "result": 2.7},
      {"measurement": "Fluorescence Intensity", "setting": "[5]", "result": 402.0},
      {"measurement": "Relativeness (vs (−))", "setting": "[6]", "result": 16.2, "unit": "times"},
      {"measurement": "Fluorescence Intensity", "setting": "[7]", "result": 2378.5},
      {"measurement": "Effect of enhancement compared among the sugars", "setting": "Exp 9, 3 days", "result": "comparable to that of sucrose"}
    ]},
    {"smiles": "O=C[C@H](O)[C@@H](O)[C@@H](O)[C@H](O)CO", "note": "[Galactose, galactose]", "values": [
      {"measurement": "Relativeness (vs (−))", "setting": "[4]", "result": 1.3},
      {"measurement": "Fluorescence Intensity", "setting": "[5]", "result": 189.5},
      {"measurement": "Relativeness (vs (−))", "setting": "[6]", "result": 4.0, "unit": "times"},
      {"measurement": "Fluorescence Intensity", "setting": "[7]", "result": 583.5},
      {"measurement": "Effect of enhancement compared among the sugars", "setting": "Exp 9, 3 days", "result": "lower than those of the other sugars"}
    ]},
    {"smiles": "O=C[C@@H](O)[C@H](O)[C@@H](O)[C@@H](O)CO", "note": "[L-Glucose, L-glucose, reference compound]", "values": [
      {"measurement": "Fluorescence Intensity", "setting": "[1]", "result": 104.7},
      {"measurement": "Fluorescence Intensity", "setting": "[2]", "result": 669.2},
      {"measurement": "Fluorescence Intensity", "setting": "[3]", "result": 1397.7},
      {"measurement": "Relativeness (vs Glucose(−))", "setting": "Exp 5, glucose 132 mM final, Day 1", "result": "11 times and 11.0 times"}
    ]},
    {"smiles": "OC[C@H]1O[C@@H](O[C@H]2[C@H](O)[C@@H](O)C(O)O[C@@H]2CO)[C@H](O)[C@@H](O)[C@H]1O", "note": "(some centres unmarked) [Lactose, lactose]", "values": [
      {"measurement": "Fluorescence Intensity", "setting": "[8]", "result": 1189.0},
      {"measurement": "Relativeness (vs No Sugar)", "setting": "[9]", "result": 2.0},
      {"measurement": "Fluorescence Intensity", "setting": "[10]", "result": 1880.3},
      {"measurement": "Relativeness (vs No Sugar)", "setting": "[11]", "result": 3.1},
      {"measurement": "Fluorescence Intensity", "setting": "[12]", "result": 3606.8},
      {"measurement": "Fluorescence Intensity", "setting": "[13]", "result": 503.2},
      {"measurement": "Fluorescence Intensity", "setting": "[14]", "result": 2097.0},
      {"measurement": "Fluorescence Intensity", "setting": "[15]", "result": 10798.2}
    ]},
    {"smiles": "OC[C@H]1O[C@H](O[C@H]2[C@H](O)[C@@H](O)[C@H](O)O[C@@H]2CO)[C@H](O)[C@@H](O)[C@@H]1O", "note": "[Maltose, maltose]", "values": [
      {"measurement": "Fluorescence Intensity", "setting": "[8]", "result": 1158.0},
      {"measurement": "Relativeness (vs No Sugar)", "setting": "[9]", "result": 1.9},
      {"measurement": "Fluorescence Intensity", "setting": "[10]", "result": 1833.5},
      {"measurement": "Relativeness (vs No Sugar)", "setting": "[11]", "result": 3.0},
      {"measurement": "Fluorescence Intensity", "setting": "[12]", "result": 3281.8},
      {"measurement": "Fluorescence Intensity", "setting": "[13]", "result": 532.7},
      {"measurement": "Fluorescence Intensity", "setting": "[14]", "result": 2009.0},
      {"measurement": "Relativeness (vs No Sugar)", "setting": "[16]", "result": 5.4}
    ]},
    {"smiles": "OC[C@@H](O)[C@@H](O)[C@H](O)[C@H](O)CO", "note": "[Mannitol, mannitol, reference compound]", "values": [
      {"measurement": "GFP intensity", "setting": "3 days", "result": 342.8}
    ]},
    {"smiles": "[Cl-].[Na+]", "note": "[NaCl, reference compound]", "values": [
      {"measurement": "GFP intensity", "setting": "3 days", "result": 2.5}
    ]},
    {"smiles": "OC[C@H]1O[C@H](O[C@H]2O[C@H](CO)[C@@H](O)[C@H](O)[C@H]2O)[C@H](O)[C@@H](O)[C@@H]1O", "note": "[Trehalose, trehalose]", "values": [
      {"measurement": "Fluorescence Intensity", "setting": "[8]", "result": 995.7},
      {"measurement": "Relativeness (vs No Sugar)", "setting": "[9]", "result": 1.6},
      {"measurement": "Fluorescence Intensity", "setting": "[10]", "result": 1249.0},
      {"measurement": "Relativeness (vs No Sugar)", "setting": "[11]", "result": 2.1},
      {"measurement": "Fluorescence Intensity", "setting": "[12]", "result": 1903.7},
      {"measurement": "Fluorescence Intensity", "setting": "[13]", "result": 230.7},
      {"measurement": "Fluorescence Intensity", "setting": "[14]", "result": 949.8},
      {"measurement": "Fluorescence Intensity", "setting": "[15]", "result": 6490.7},
      {"measurement": "Relativeness (vs No Sugar)", "setting": "[16]", "result": 3.1}
    ]}
  ]
}
